Here are results for one compound from patent US20250002470A1, “NITROGEN-CONTAINING COMPOUND, PREPARATION METHOD THEREFOR AND APPLICATION THEREOF” (ZHEJIANG AIXPLORER BIOTECH CO., LTD., priority 2021, published 2025).

One may read the IC50 as the concentration that inhibits the measured activity by half. Higher therefore signals a need for much substance.

Where only a bound is given, the exact number is not on record here.

In one assay the target is hERG potassium channel (Homo sapiens, UniProt Q12809). The assay can be described thus: Whole-cell patch-clamp (QPatch) of hERG current in HEK293 cells stably expressing hERG. In kind it is cell-based. As for the experimental part:
In this study, a whole-cell patch-clamp technique was used to study the inhibitory effect of compounds on hERG potassium channels and to evaluate the risk of ventricular repolarization toxicity.
The HEK293 cell line stably expressing the hERG potassium channel cells was purchased from Creacell, Inc. (Cat. No. A-0320).
The HEK293 cell line that can stably express the hERG potassium channel, was cultured in DMEM medium containing 10% fetal bovine serum and 0.8 mg/mL G418 at 37° C. and 5% carbon dioxide.
Before the test, the cells were separated with TrypLET Express, centrifuged after adding medium to terminate digestion, resuspended the cell count, adjusted the cell density to 2-3×10^6 cells/mL, and then lightly mixed the cells on a room temperature equilibration shaker for 15-20 min.
Electrophysiological assays were performed using a fully automated patch-clamp QPatch 48 X (Sophion) device. The prepared cells were placed on a centrifuge on the Qpatch bench, the cells were washed using multiple centrifugation/suspension methods, and the cell culture medium was replaced with extracellular fluid. Remove an MTP-96 plate and place it in the location of the MTP source. Remove the QPlate chip and subsequently place the QPlate at the Qplate source location. The robotic arm scans the MTP-96 board and the QPlate chip barcode and grabs it to the measuring station. Draw the intracellular and external fluid from the liquid pool and add them to the intracellular fluid pool, cell and test cell pool of the QPlate chip, respectively. At the measuring station, all measuring sites on the QPlate undergo initial quality control. The quality control process includes aspirating the cell suspension from the cell vessel of the centrifuge and positioning the cells to the chip wells via a pressure controller to establish a high-resistance seal and create a whole-cell recording pattern.
The voltage stimulation protocol for whole-cell patch-clamp recording of whole-cell hERG potassium currents is as follows: the cell membrane voltage clamps at −80 mV when a whole-cell closure is formed. The clamping voltage is depolarized from −80 mV to −50 mV for 0.5 s (as a leakage current detection), then steps to 30 mV for 2.5 s, and then quickly recovers to −50 mV for 4 s to excite the tail current of the hERG channel. The data were collected repeatedly every 10 s to observe the effect of the drug on the hERG tail current. −50 mV stimulation at 0.5 s was used as the leakage current detection. The test data is collected by Qpatch and stored in the connected service station.
First, the current after the effect of each drug concentration and the blank control current are normalized 0, and then the inhibition rate corresponding to each drug concentration is calculated.
Calculate the mean and standard error for each concentration and calculate the semi-inhibitory concentration for each compound using the following Formula:
Y=Bottom+(Top−Bottom)/(1+10^((LogIC50−X)*HillSlope)) The above Formula was used to fit the dose-dependent effect nonlinearly, where C represents the test substance concentration, IC50 is the semi-inhibitory concentration, and h represents the Hill coefficient. Curve fitting and IC50 calculations were performed using Graphpad software.
For orientation: The patch-clamp technique gives a direct electrical read-out from membranes.

For another assay, the system named is IL-18. In words: IL-18 cytokine in LPS-induced sepsis mouse model. The conditions noted are these: for IL-18: given 30 minutes before LPS (10 mg/kg i.p.), serum 2 hours after LPS. In kind it is in vivo, C57BL/6J mice. As to the method:
The purpose of this study was to investigate and evaluate the inhibitory effect of the test compound on […] and IL-18 cytokine production in a mouse model of lipopolysaccharide (LPS)-induced sepsis.
6-8 weeks female C57BL/6J mice, randomized, 5 animals in the Naïve group, and the rest of the groups (vehicle group, 15 mg/kg group with embodiment 33 compound, 50 mg/kg group with embodiment 33 compound and 150 mg/kg group with embodiment 33 compound, wherein 15 mg/kg, 50 mg/kg and 150 mg/kg is the dosage of embodiment 33, mg/kg is referred to as mpk) 10 animals per group. Among them, the Naïve group was not stimulated with LPS, and the 10 mice in each group were intraperitoneally injected with LPS (10 mg/kg) to induce sepsis model in the mouse. The vehicle (corresponding to the vehicle group) and the test compound (corresponding to the 15mpk group of Example 33, the 50mpk group of Example 33 and the 150mpk group of Example 33 respectively) were administered 30 minutes before LPS stimulation. 2 hours after LPS stimulation, the mice were euthanized, and whole blood was collected from the heart and placed in EP tubes, left to stand at room temperature for 1 hour, and centrifuged at 8000 rpm for 10 minutes to collect serum for measurement of cytokines IL-10 and IL-18.
After the kit is taken out of the refrigerator, it should be equilibrated at room temperature (25-28° C.) for 20 minutes; the remaining reagents should be stored at 4° C. immediately after each test.
Prepare an appropriate amount of standard diluent: dilute the standard diluent (5×) to 1× with double-distilled or deionized water. For example, add 10 mL of standard diluent (5×) to 40 mL of water and mix well to obtain a 1× standard. Diluent.
Prepare an appropriate amount of washing liquid: Dilute the washing liquid (20×) with double-distilled or deionized water to 1×. For example, add 10 mL of washing liquid (20×) to 190 mL of water and mix well to obtain a 1×washing liquid.
Standard preparation: Add the standard diluent to one bottle of standard according to the volume (0.5 mL) marked on the standard label, incubate at room temperature for 15 minutes, then mix gently and pipet several times with a pipette to completely dissolve the standard. The final concentration of the standard reaches 1500 pg/mL. Take […] 1.5 mL centrifuge tubes, add 250 μL of standard diluent to each tube in advance, and perform dilutions of the standard to obtain a total of 1500, 750, 375, 187.5, 93.75, 46.875, and 23.4375 pg/mL. standard concentration, and finally add the diluted standard to the pre-coated plate wells in sequence, and add the standard diluent directly as a concentration of 0 pg/mL, for a total of 8 standard concentrations. […]

hERG potassium channel, sequence (Q12809 whole entry): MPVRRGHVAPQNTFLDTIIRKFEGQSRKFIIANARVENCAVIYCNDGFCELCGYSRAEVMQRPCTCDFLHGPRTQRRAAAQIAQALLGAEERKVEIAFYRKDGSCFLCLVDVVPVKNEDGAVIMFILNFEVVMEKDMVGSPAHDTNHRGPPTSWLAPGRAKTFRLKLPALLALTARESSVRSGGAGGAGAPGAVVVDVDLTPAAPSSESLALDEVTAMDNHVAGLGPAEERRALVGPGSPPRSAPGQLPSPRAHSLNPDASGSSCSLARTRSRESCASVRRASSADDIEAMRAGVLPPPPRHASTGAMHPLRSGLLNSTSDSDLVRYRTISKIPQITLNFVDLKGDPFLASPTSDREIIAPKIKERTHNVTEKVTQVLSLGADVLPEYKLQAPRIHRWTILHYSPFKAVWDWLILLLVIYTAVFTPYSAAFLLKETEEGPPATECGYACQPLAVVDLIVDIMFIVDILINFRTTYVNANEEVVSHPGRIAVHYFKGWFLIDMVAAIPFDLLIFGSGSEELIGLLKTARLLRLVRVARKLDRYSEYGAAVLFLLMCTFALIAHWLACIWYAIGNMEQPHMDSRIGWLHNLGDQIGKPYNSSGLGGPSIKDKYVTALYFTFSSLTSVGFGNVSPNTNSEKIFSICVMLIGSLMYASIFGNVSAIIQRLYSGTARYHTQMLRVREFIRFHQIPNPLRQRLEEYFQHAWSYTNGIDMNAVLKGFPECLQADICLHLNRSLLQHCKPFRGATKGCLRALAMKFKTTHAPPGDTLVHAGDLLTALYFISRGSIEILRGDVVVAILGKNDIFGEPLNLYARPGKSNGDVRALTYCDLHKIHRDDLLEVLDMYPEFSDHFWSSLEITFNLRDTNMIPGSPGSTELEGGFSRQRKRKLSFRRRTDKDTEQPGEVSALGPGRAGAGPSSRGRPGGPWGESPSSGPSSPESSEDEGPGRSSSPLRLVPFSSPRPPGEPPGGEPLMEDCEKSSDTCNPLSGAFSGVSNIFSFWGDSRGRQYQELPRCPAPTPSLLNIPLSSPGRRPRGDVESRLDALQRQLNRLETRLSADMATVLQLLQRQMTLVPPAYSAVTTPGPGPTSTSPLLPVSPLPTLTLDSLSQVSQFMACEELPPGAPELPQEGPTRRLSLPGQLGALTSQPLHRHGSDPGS

As for `Cc1nc(N[C@@H]2CCCC[C@H]2O)nnc1-c1ccc(C(F)(F)F)cc1O` [Embodiment 33], the IC50 at hERG potassium channel was greater than 30 µM. The IL-18 is 560.5 ± 46.39 in the assay on IL-18 (15 mpk), 320.1 ± 29.69 with IL-18 (50 mpk) and 216.2 ± 9.238 in the assay on IL-18 (150 mpk). Moreover, in the assay on IL-18 (two doses of 50 mg/kg and 150 mg/kg), the “inhibitory effect on IL-18 compared with the Vehicle group” value is reported as “significant inhibitory effect”.
